Data from patent publication US20220308062A1, “METHODS FOR PREDICTING DRUG RESPONSIVENESS IN SAMPLES FROM CANCER SUBJECTS” (Board of Regents, The University of Texas System, priority 2019, published 2022).
pIC50: −log10 of the molar value. “Also recorded” adds a separate entry of the source.

How the values were obtained:
[1] = test system: A549 cells; assay: Proliferation assay (IncuCyte ZOOM), A549; type: cell-based; settings: Homo sapiens, read-out: IC50 from proliferation curves
Experimental: (§1) Analysis was performed using IncuCyte ZOOM (Essen BioScience) with images acquired every 3 hr for up to 72 hr. Four images (proliferation) and one image (wound healing) were captured per well for each time point. Data were normalized to controls, and values for 50% effective concentration were calculated using Prism V7.0 (GraphPad software, San Diego, Calif.).
In vitro phenotypic assay. […] Proliferation and migration curves were generated using IncuCyte ZOOM (Essen BioScience) with images acquired every 3 hr over a 72 hr timeframe. Images were captured per well for each time point. Data were normalized to controls, and values for 50% inhibitory concentration were calculated using Prism V8.0 (GraphPad software).

[2] = test system: H226 cells; assay: Proliferation assay (IncuCyte ZOOM), H226; type: cell-based; settings: Homo sapiens, NCI-H226; H226 squamous cell cancer line; read-out: IC50 from proliferation curves
Experimental: as §1

[3] = test system: A549 mouse xenograft; assay: Xenograft study of TP-0903 treatment; type: in vivo; settings: oral 120 mg/kg twice weekly or 80 mg/kg daily
Experimental: (§2) Xenograft study of TP-0903 treatment. Mouse xenografts were implanted subcutaneously in the hind flank of the athymic nude mice. Tumor volumes were allowed to grow to a medium size (approximately 100 mm^3) before stratification and initiation of dosing. General health, tumor volumes, and bodyweights were followed over the course of the study.
as §2, with “grown” for “allowed to grow”, “(˜100” for “(approximately 100”, “dose initiation.” for “initiation of dosing.”

[4] = test system: two other TAM family; settings: refs [21, 22]; concentration not given; cited from earlier work
[5] = test system: patients with advanced tumors; settings: early results, ref [21]; cited from earlier work

In the case of `CN1CCN(Cc2ccc(Nc3ncc(Cl)c(Nc4ccccc4S(=O)(=O)N(C)C)n3)cc2)CC1` [TP-0903], the pIC50 [1] was 7.50, the pIC50 [2] was 7.89 and the “effect on body weight” value [3] was “without any adverse effects”. The “tumor size / growth” value ([3]; 21 days) was “substantial tumor size regression; also recorded: Growth inhibition was confirmed”, the “inhibition of two other TAM family” value [4] was 80% and the tolerability in patients [5] was “well tolerated”.
